Values of other authors, collected in paper PMC8538057, “Direct Delivery of ANA-TA9, a Peptide Capable of Aβ Hydrolysis, to the Brain by Intranasal Administration” (Pharmaceutics, 2021).

Key:
[1] = tested on: normal and cognitively impaired rats; conditions: i.n. administration; cited from earlier work
Description: (§1) Nasal drug administration has several advantages over oral or i.v. administration, which include noninvasiveness, self-administration, short onset of action, and higher bioavailability due to the avoidance of hepatic first-pass metabolism. Therefore, interest has grown in i.n. drug administration as a route for the application of drugs, particularly peptides, for systemic delivery. In addition to the above advantages, active pharmaceutical ingredients applied to the nasal cavity can undergo not only systemic absorption but, also, direct delivery to the brain [33, 34, 35, 36]. The brain up ...

aged mice = conditions: i.n. administration; cited from earlier work
Description: as §1

Aβ42 = conditions: also three Aβ fragment peptides, particularly Aβ11–29; cited from earlier work
Description: Recently, we reported the proteolytic activity of the shorter synthetic peptides JAL-TA9 (YKGSGFRMI) and ANA-TA9 (SKGQAYRMI), derived from the Box A region of the Tob1 and ANA/BTG3 proteins. These peptides cleave Aβ42 and three Aβ fragment peptides, particularly Aβ11–29 originating from the central region, which is considered the core region of Aβ42 aggregation/oligomerization. We gave these peptides the general name Catalytide. Catalytides such as JAL-TA9 and ANA-TA9 are attractive candidate peptide drugs for a novel strategy for preventing and treating AD.

Sequence | effect on memory function [1] | effect on anxiety (aged mice) | cleavage of Aβ42 (proteolytic activity) (Aβ42)
NAPVSIPQ | improves memory function | decreases anxiety | 
YKGSGFRMI [JAL-TA9, Catalytide (catalytic peptide) … derived from the Box A region of Tob1 protein, cleaves Aβ42] |  |  | cleave Aβ42
